Our source for the Kd values is publication PMC2824606 (Molecular cell, 2010).

Each structure is given as a SMILES string.

For this assay, the target named is yHsp90 (yeast Hsp90, Hsp82) (Saccharomyces cerevisiae, UniProt P02829). Put plainly: Kd determination. The assay is classed as binding.
yHsp90 (yeast Hsp90, Hsp82), sequence (P02829 whole entry): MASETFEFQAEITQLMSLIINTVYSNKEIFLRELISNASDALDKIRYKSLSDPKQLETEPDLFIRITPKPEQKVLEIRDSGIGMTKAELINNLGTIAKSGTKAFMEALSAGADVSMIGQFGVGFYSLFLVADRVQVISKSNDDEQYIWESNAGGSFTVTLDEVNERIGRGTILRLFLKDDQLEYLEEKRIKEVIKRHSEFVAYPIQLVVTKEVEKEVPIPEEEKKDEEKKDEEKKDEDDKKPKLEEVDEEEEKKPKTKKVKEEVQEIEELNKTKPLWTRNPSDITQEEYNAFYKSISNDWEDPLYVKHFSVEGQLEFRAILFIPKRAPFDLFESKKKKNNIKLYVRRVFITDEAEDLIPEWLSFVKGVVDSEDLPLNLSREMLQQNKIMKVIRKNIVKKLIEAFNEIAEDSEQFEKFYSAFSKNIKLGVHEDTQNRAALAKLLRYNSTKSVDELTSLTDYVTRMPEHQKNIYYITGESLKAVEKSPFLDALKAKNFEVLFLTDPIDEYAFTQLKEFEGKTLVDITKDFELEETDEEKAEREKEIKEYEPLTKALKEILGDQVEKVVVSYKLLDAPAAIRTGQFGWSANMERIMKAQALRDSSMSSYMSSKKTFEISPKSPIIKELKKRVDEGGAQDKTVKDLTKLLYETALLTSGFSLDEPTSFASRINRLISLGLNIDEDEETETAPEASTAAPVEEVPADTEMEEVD

With `Nc1ncnc2c1ncn2[C@@H]1O[C@H](CO[P@](=O)(O)O[P@](=O)(O)NP(=O)(O)O)[C@@H](O)[C@H]1O` [AMPPNP], the Kd entry was “Kd of each protein for AMPPNP is shown in inset”.
